# Laboratory results published in ChEMBL document CHEMBL1158270, “Triangulynes A-H and trangulynic acid, new cytotxic polyacetylenes from the marine sponge Pellina triangulata” (1996).
# Experiments:
# Type in all cases: functional
# MDA-N = assay: Cytotoxicity against human MDA-N cells
# HCC 2998 = assay: Cytotoxicity against human HCC2998 cells
# LOX IMVI = assay: Cytotoxicity against human LOXIMVI cells
# RPMI-8226 = assay: Cytotoxicity against human RPMI8226 cells
# M14 = assay: Cytotoxicity against human M14 cells
# [1] = Cytotoxicity against human MCF7/ADR cells; settings: NCI/ADR-RES
# HOP-62 = assay: Cytotoxicity against human HOP62 cells
# NCI-H23 = assay: Cytotoxicity against human NCI-H23 cells
# OVCAR-5 = assay: Cytotoxicity against human OVCAR5 cells
# UO-31 = assay: Cytotoxicity against human UO31 cells
# CCRF-CEM = assay: Cytotoxicity against human CCRF-CEM cells
# SN12C = assay: Cytotoxicity against human SN12C cells
# [2] = Cytotoxicity against human Hs 578T cells
# HL-60 = assay: Cytotoxicity against human HL60 cells
# HCT-15 = assay: Cytotoxicity against human HCT15 cells
# [3] = read-out: pLC50 (the source's name) (converted)
structure (smiles),measurement,setting,value
C#C[C@H](O)/C=C/CCCCCCCCCC/C=C\CCCCCCC[C@H](O)C#CC#CC#CCO [TRIANGULYNE A],GI50,MDA-N,240 nM
same,CC50,MDA-N; [3],8510 nM
same,TGI,MDA-N; read-out: pTGI (converted),3090 nM
same,GI50,HCC 2998,257 nM
same,LC50,HCC 2998,2190 nM
same,TGI,HCC 2998; read-out: pTGI (converted),692 nM
same,GI50,LOX IMVI,141 nM
same,LC50,LOX IMVI,7940 nM
same,TGI,LOX IMVI; read-out: pTGI (converted),363 nM
same,GI50,RPMI-8226,30.9 nM
same,LC50,RPMI-8226,100000 nM
same,TGI,RPMI-8226; read-out: pTGI (converted),1000 nM
same,GI50,M14,158 nM
same,LC50,M14,3470 nM
same,TGI,M14; read-out: pTGI (converted),813 nM
same,GI50,[1],302 nM
same,CC50,[1]; [3],32400 nM
same,TGI,[1]; read-out: pTGI (converted),5130 nM
same,GI50,HOP-62,1580 nM
same,CC50,HOP-62; [3],75900 nM
same,TGI,HOP-62; read-out: pTGI (converted),5370 nM
same,GI50,NCI-H23,257 nM
same,CC50,NCI-H23; [3],14100 nM
same,TGI,NCI-H23; read-out: pTGI (converted),1290 nM
same,GI50,OVCAR-5,4470 nM
same,CC50,OVCAR-5; [3],34700 nM
same,TGI,OVCAR-5; read-out: pTGI (converted),12000 nM
same,GI50,UO-31,1290 nM
same,CC50,UO-31; [3],5500 nM
same,TGI,UO-31; read-out: pTGI (converted),2690 nM
same,GI50,CCRF-CEM,170 nM
same,LC50,CCRF-CEM,33900 nM
same,TGI,CCRF-CEM; read-out: pTGI (converted),776 nM
same,GI50,SN12C,1410 nM
same,CC50,SN12C; [3],32400 nM
same,TGI,SN12C; read-out: pTGI (converted),11000 nM
same,GI50,[2],2400 nM
same,CC50,[2]; [3],57500 nM
same,TGI,[2]; read-out: pTGI (converted),8320 nM
same,GI50,HL-60,83.2 nM
same,LC50,HL-60,25100 nM
same,TGI,HL-60; read-out: pTGI (converted),3630 nM
same,GI50,HCT-15,407 nM
same,LC50,HCT-15,7240 nM
same,TGI,HCT-15; read-out: pTGI (converted),2090 nM
